Results: ChEMBL document CHEMBL1152385, “Cyanoguanidine-based lactam derivatives as a novel class of orally bioavailable factor Xa inhibitors” (Bioorg Med Chem Lett, 2009)
The source made the active and inactive calls. The rule behind the calls is not given here.

Tests used:
Rattus norvegicus [1] = test: Ex vivo anticoagulant activity in pentobarbital-anesthetized Sprague-Dawley rat assessed as prolongation of prothrombin time administered as initial bolus iv dosing followed by sustaining iv infusion; type: functional, organism-based
Rattus norvegicus [2] = test: Antithrombotic activity in pentobarbital-anesthetized Sprague-Dawley rat assessed as improved blood flow in arterial thrombosis administered as initial bolus iv dosing plus sustaining iv infusion; type: functional, organism-based
Rattus norvegicus [3] = test: Antithrombotic activity in pentobarbital-anesthetized Sprague-Dawley rat assessed reduction in occlusion of arteries administered as initial 20 mg/kg, iv bolus dose followed by sustaining 20 mg/kg/h, iv dosing; type: functional, organism-based
[4] = target: Adenosine receptor A1 (Homo sapiens) (UniProt P30542); test: Inhibition of human adenosine A1 receptor at 10 uM
Adenosine receptor A1 (Homo sapiens), sequence (P30542 whole entry): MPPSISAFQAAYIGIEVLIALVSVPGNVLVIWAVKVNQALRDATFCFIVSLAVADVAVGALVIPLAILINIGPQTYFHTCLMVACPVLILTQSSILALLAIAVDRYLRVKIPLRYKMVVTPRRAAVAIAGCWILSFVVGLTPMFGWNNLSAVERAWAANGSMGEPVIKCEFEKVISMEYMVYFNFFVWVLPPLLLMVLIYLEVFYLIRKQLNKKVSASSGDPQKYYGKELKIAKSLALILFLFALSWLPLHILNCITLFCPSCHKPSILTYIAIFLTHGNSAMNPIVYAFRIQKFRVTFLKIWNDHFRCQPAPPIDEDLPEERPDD

[5] = target: Adrenergic receptor alpha-1 (Rattus norvegicus) (UniProt P15823+P23944+P43140); test: Inhibition of rat adrenergic alpha1 receptor at 10 uM
[6] = target: Adrenergic receptor alpha-2 (Rattus norvegicus) (UniProt P22086+P19328+P22909); test: Inhibition of rat adrenergic alpha2 receptor at 10 uM
[7] = target: Beta-2 adrenergic receptor (Homo sapiens) (UniProt P07550); test: Inhibition of human adrenergic beta2 receptor at 10 uM
[8] = target: Beta-1 adrenergic receptor (Homo sapiens) (UniProt P08588); test: Inhibition of human adrenergic beta-1 receptor at 10 uM
Beta-1 adrenergic receptor (Homo sapiens), sequence (P08588 whole entry, looked up): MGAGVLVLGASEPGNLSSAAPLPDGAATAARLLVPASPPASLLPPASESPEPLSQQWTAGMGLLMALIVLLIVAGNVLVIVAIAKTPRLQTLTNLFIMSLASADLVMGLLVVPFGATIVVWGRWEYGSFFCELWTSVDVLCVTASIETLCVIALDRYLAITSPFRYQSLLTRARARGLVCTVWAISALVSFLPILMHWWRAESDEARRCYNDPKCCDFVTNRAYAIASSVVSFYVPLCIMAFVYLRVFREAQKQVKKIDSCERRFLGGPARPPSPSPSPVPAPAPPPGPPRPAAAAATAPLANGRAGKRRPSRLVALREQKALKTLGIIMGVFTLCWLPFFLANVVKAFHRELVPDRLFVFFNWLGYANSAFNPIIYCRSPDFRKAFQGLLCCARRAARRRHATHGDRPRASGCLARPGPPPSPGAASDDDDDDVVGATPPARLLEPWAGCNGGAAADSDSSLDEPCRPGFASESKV

Rattus norvegicus [9] = species on record: Rattus norvegicus; test: Inhibition of rat central-type benzodiazepine receptor at 10 uM
[10] = target: Cholecystokinin receptor type A (Homo sapiens) (UniProt P32238); test: Inhibition of human CCK1 receptor at 10 uM
Cholecystokinin receptor type A (Homo sapiens), sequence (P32238 whole entry): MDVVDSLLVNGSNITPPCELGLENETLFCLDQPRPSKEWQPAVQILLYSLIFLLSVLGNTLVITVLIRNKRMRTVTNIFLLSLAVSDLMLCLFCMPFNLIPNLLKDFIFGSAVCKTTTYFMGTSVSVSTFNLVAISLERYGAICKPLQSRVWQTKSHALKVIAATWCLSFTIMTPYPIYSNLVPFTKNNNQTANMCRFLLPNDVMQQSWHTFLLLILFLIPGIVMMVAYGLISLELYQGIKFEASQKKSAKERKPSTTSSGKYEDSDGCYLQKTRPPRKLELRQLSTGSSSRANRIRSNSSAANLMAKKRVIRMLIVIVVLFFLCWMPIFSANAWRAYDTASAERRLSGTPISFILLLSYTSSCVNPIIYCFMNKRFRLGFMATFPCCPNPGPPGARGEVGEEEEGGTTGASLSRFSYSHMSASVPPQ

[11] = target: D(1A) dopamine receptor (Homo sapiens) (UniProt P21728); test: Inhibition of human dopamine D1 receptor at 10 uM
D(1A) dopamine receptor (Homo sapiens), sequence (P21728 whole entry): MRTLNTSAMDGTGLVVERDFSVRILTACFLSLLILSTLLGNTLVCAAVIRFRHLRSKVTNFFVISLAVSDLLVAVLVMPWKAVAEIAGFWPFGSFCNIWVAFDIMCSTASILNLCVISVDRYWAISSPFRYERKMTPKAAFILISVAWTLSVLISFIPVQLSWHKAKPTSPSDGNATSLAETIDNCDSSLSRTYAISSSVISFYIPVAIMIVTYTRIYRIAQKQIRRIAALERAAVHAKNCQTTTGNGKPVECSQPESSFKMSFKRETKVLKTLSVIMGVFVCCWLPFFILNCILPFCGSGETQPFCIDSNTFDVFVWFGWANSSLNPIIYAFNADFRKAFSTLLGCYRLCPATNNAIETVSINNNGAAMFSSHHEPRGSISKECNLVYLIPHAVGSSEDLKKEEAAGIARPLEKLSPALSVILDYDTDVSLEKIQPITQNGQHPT

[12] = target: D(2) dopamine receptor (Homo sapiens) (UniProt P14416); test: Inhibition of human dopamine D2S receptor at 10 uM
D(2) dopamine receptor (Homo sapiens), sequence (P14416 whole entry): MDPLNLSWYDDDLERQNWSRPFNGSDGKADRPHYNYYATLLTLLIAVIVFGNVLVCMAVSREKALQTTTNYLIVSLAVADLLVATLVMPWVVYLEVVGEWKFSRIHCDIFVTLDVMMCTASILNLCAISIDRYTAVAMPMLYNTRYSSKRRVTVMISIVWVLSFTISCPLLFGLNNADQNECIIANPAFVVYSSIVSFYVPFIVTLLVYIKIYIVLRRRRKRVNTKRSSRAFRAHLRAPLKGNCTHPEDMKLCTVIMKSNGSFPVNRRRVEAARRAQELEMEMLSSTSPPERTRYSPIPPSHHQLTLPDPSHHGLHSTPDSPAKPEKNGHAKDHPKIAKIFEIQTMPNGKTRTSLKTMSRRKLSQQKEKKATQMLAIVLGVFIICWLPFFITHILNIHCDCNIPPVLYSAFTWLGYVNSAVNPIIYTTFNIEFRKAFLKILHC

Rattus norvegicus [13] = species on record: Rattus norvegicus; test: Inhibition of rat AMPA receptor at 10 uM
Rattus norvegicus [14] = species on record: Rattus norvegicus; test: Inhibition of rat kainate receptor at 10 uM
[15] = target: Glutamate NMDA receptor (Rattus norvegicus) (UniProt P35439+Q00959+Q00960+Q00961+Q62645+Q8VHN2+Q9R1M7); test: Inhibition of rat NMDA receptor at 10 uM; type: protein-complex assay
[16] = target: Histamine H1 receptor (Cavia porcellus) (UniProt P31389); test: Inhibition of guinea pig histamine H1 receptor at 10 uM
[17] = target: Histamine H2 receptor (Cavia porcellus) (UniProt P47747); test: Inhibition of guinea pig histamine H2 receptor at 10 uM
[18] = target: Muscarinic acetylcholine receptor (Rattus norvegicus) (UniProt P08482+P08483+P08485+P08911+P10980); test: Inhibition of rat muscarinic receptor at 10 uM
Rattus norvegicus [19] = species on record: Rattus norvegicus; test: Inhibition of rat opioid receptor at 10 uM
Rattus norvegicus [20] = species on record: Rattus norvegicus; test: Inhibition of rat PCP receptor at 10 uM
Mus musculus = species on record: Mus musculus; test: Inhibition of mouse rolipram binding site at 10 uM
Rattus norvegicus [21] = species on record: Rattus norvegicus; test: Inhibition of rat 5-HT receptor at 10 uM
[22] = target: 5-hydroxytryptamine receptor 1A (Homo sapiens) (UniProt P08908); test: Inhibition of human 5HT1A receptor at 10 uM
[23] = target: 5-hydroxytryptamine receptor 2B (Homo sapiens) (UniProt P41595); test: Inhibition of human 5HT2B receptor at 10 uM
5-hydroxytryptamine receptor 2B (Homo sapiens), sequence (P41595 whole entry): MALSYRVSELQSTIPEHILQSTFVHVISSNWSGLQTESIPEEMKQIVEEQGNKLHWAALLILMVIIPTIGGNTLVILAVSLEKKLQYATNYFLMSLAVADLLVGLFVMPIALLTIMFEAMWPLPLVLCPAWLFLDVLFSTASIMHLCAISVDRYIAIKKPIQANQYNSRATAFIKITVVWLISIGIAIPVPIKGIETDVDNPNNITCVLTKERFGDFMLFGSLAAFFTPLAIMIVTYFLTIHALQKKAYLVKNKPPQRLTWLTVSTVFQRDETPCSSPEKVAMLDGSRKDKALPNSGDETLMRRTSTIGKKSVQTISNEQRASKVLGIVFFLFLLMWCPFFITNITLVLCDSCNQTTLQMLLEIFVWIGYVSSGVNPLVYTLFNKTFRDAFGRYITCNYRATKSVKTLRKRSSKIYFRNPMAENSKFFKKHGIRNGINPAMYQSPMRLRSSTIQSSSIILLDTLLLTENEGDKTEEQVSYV

[24] = Inhibition of sst receptor at 10 uM
[25] = target: Glucocorticoid receptor (Homo sapiens) (UniProt P04150); test: Inhibition of human glucocorticoid receptor at 10 uM
Glucocorticoid receptor (Homo sapiens), sequence (P04150 whole entry): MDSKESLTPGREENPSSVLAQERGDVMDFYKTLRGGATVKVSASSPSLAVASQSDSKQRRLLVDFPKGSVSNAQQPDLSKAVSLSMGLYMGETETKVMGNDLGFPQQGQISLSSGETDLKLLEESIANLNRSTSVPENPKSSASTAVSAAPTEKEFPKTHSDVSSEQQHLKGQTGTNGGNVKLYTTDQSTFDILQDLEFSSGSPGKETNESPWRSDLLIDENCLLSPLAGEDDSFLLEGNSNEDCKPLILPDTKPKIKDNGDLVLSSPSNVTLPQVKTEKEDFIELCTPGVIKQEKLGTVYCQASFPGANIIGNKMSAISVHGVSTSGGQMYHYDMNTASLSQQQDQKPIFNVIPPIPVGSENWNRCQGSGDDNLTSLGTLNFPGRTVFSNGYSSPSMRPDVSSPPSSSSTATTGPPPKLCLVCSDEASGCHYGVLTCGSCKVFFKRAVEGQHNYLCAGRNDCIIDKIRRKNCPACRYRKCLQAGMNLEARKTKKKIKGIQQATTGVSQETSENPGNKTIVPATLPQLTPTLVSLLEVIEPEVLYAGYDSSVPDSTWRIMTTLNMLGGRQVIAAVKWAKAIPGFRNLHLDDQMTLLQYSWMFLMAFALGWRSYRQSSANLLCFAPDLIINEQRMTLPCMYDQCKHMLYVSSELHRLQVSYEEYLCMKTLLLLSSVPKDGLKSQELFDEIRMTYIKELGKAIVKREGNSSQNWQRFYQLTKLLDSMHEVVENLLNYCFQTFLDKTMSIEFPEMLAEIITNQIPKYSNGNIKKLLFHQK

[26] = target: Progesterone receptor (Homo sapiens) (UniProt P06401); test: Inhibition of human progesterone receptor at 10 uM
Progesterone receptor (Homo sapiens), sequence (P06401 whole entry): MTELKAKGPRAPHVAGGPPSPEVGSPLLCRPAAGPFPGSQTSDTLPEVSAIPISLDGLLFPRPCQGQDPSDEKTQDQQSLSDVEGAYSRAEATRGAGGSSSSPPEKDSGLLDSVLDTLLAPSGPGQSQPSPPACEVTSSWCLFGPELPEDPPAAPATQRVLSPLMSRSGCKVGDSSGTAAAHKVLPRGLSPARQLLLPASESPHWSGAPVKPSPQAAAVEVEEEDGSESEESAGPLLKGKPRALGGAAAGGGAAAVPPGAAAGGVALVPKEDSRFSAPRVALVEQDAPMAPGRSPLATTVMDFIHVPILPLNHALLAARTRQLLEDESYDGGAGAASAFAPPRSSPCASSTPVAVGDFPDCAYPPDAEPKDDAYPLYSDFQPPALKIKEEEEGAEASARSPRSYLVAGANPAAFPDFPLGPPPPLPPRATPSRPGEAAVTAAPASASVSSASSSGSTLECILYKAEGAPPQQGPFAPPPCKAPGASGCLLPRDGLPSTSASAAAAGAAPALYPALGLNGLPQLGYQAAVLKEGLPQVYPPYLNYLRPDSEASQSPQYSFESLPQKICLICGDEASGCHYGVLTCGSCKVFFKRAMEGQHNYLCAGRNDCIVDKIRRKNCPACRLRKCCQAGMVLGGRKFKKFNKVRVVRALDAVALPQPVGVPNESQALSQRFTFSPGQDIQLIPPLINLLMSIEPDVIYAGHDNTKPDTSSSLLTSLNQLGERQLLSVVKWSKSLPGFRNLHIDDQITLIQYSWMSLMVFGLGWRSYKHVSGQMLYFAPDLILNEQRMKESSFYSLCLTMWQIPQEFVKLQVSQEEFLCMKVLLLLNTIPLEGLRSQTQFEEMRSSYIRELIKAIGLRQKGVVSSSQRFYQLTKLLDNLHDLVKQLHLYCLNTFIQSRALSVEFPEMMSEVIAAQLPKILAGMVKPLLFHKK

[27] = target: Estrogen receptor (Homo sapiens) (UniProt P03372); test: Inhibition of human ERalpha receptor at 10 uM
Rattus norvegicus [28] = species on record: Rattus norvegicus; test: Inhibition of rat sodium channel site 2 at 10 uM
Rattus norvegicus [29] = species on record: Rattus norvegicus; test: Inhibition of rat chloride channel at 10 uM
[30] = target: Sodium-dependent noradrenaline transporter (Homo sapiens) (UniProt P23975); test: Inhibition of human norepinephrine transporter at 10 uM
Sodium-dependent noradrenaline transporter (Homo sapiens), sequence (P23975 whole entry): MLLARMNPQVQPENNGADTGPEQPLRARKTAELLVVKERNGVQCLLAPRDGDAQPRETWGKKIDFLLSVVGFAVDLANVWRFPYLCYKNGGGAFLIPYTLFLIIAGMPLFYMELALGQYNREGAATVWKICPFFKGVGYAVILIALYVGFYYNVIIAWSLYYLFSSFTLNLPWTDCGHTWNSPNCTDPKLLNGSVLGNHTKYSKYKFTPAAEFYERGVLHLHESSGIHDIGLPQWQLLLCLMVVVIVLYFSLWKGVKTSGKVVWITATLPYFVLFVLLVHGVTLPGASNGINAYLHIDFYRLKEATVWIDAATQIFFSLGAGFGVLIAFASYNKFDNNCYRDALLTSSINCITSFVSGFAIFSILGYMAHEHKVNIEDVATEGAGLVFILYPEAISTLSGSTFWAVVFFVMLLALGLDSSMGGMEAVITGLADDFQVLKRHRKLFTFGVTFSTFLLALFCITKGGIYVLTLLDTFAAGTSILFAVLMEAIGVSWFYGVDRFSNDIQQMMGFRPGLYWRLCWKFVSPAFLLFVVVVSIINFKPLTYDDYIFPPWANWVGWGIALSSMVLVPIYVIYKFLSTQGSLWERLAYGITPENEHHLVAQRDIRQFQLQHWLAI

[31] = target: Sodium-dependent dopamine transporter (Rattus norvegicus) (UniProt P23977); test: Inhibition of rat dopamine transporter at 10 uM
Rattus norvegicus [32] = species on record: Rattus norvegicus; test: Inhibition of rat GABA transporter at 10 uM
Rattus norvegicus [33] = species on record: Rattus norvegicus; test: Inhibition of rat choline transporter at 10 uM
[34] = Inhibition of trypsin
[35] = Inhibition of tryptase
[36] = Inhibition of sodium channel
cells = conditions: Homo sapiens, TC5
Rattus norvegicus [37] = species on record: Rattus norvegicus; test: animal or person; conditions: Sprague-Dawley, iv
Rattus norvegicus [38] = species on record: Rattus norvegicus; test: animal or person; conditions: Sprague-Dawley, Vena cava, iv

For `Cc1cc2cc(/N=C(/NC#N)N[C@H]3CCCCN(CC(=O)N4CCCC4)C3=O)ccc2o1`, the Activity (Rattus norvegicus [1]) was “Dose-dependent effect”, the Activity (Rattus norvegicus [2]) was “Active” and the Activity (Rattus norvegicus [3]) was “Active”. The inhibition [4] was “inactive”, the inhibition [5] was “inactive” and the inhibition [6] was “inactive”. The inhibition [7] was “inactive”, the inhibition [8] was “inactive” and the inhibition (Rattus norvegicus [9]) was “inactive”. For the same compound, the inhibition [10] was “inactive”, the inhibition [11] was “inactive” and the inhibition [12] was “inactive”. For the same compound, the inhibition (Rattus norvegicus [13]) was “inactive”, the inhibition (Rattus norvegicus [14]) was “inactive” and the inhibition [15] was “inactive”. The inhibition [16] was “inactive”, the inhibition [17] was “inactive” and the inhibition [18] was “inactive”. For the same compound, the inhibition (Rattus norvegicus [19]) was “inactive”, the inhibition (Rattus norvegicus [20]) was “inactive” and the inhibition (Mus musculus) was “inactive”. The inhibition (Rattus norvegicus [21]) was “inactive”, the inhibition [22] was “inactive” and the inhibition [23] was “inactive”. The inhibition [24] was “inactive”, the inhibition [25] was “inactive” and the inhibition [26] was “inactive”. The inhibition [27] was “inactive”, the inhibition (Rattus norvegicus [28]) was “inactive” and the inhibition (Rattus norvegicus [29]) was “inactive”. The inhibition [30] was “inactive”, the inhibition [31] was “inactive” and the inhibition (Rattus norvegicus [32]) was “inactive”. For the same compound, the inhibition (Rattus norvegicus [33]) was “inactive”, the Ki [34] was over 10 µM and the Ki [35] was over 16 µM. For the same compound, the inhibition [36] was “inactive”, the EC (Plasma) was 30 µM and the IC50 (cells) was over 200 µM. The ED50 (Rattus norvegicus [37]) was 25 mg/kg and the ED50 (Rattus norvegicus [38]) was 6 mg/kg.
